For the test, the system named is gluten-reactive T cells. Kind of test: 96-well plate whole blood cytokine release, IP-10 by MAGPIX multiplex bead assay. It counts as cell-based, human. As to conditions: for Percent of maximal response to individual gluten peptides, IP-10: after oral gluten challenge; for IP-10 WB MAGPIX % max Mean: n = 10, blood after oral gluten challenge, individual peptides 5 μM (Peptide 2* of P14, Pepscan: 10 μg/mL (5.45 μM)).

Non-standard residues stand in square brackets, D forms with d. pGlu = O=C1CC[C@@H](C(=O)O)N1 Some results are limits rather than exact numbers.

Take “(pE)QPFPQPEQPFSQQ-amide ([pGlu]QPFPQPEQPFSQQ-NH2; SMILES NC(=O)CC[C@H](NC(=O)[C@H](CCC(N)=O)NC(=O)[C@H](CO)NC(=O)[C@H](Cc1ccccc1)NC(=O)[C@@H]1CCCN1C(=O)[C@H](CCC(N)=O)NC(=O)[C@H](CCC(=O)O)NC(=O)[C@@H]1CCCN1C(=O)[C@H](CCC(N)=O)NC(=O)[C@@H]1CCCN1C(=O)[C@H](Cc1ccccc1)NC(=O)[C@@H]1CCCN1C(=O)[C@H](CCC(N)=O)NC(=O)[C@@H]1CCC(=O)N1)C(N)=O) [Peptide 7]”: the “IP-10 WB MAGPIX % max Mean” value is listed as 12 (12) % max. Further, under “Subject 1, Max. 2331 pg/mL”, the “Percent of maximal response to individual gluten peptides, IP-10” value (“Percent of maximal response” for short) is 0 % of max. Besides, the “Percent of maximal response” value (Subject 2, Max. 3646 pg/mL) is given as 7 % of max. Besides, under “Subject 3, Max. 9492 pg/mL”, the “Percent of maximal response” value is reported as 60 % of max. Also, the “Percent of maximal response” value (Subject 4, Max. 9463 pg/mL) is recorded as 20 % of max. Under “Subject 5, Max. 9336 pg/mL”, the “Percent of maximal response” value was 12 % of max. In addition, where the note is “Subject 6, Max. 5863 pg/mL”, the “Percent of maximal response” value is recorded as 0 % of max. Besides, the “Percent of maximal response” value (Subject 7, Max. 2330 pg/mL) is given as 0 % of max. Besides, the “Percent of maximal response” value (Subject 8, Max. 4019 pg/mL) is 3 % of max. Further, under “Subject 9, Max. 8349 pg/mL”, the “Percent of maximal response” value is listed as 17 % of max. Moreover, the “Percent of maximal response” value (Subject 10, Max. 8922 pg/mL) is recorded as 3 % of max.

For the substance “(pE)QPFPQPEQPIPVQPEQS-amide ([pGlu]QPFPQPEQPIPVQPEQS-NH2; SMILES CC[C@H](C)[C@H](NC(=O)[C@@H]1CCCN1C(=O)[C@H](CCC(N)=O)NC(=O)[C@H](CCC(=O)O)NC(=O)[C@@H]1CCCN1C(=O)[C@H](CCC(N)=O)NC(=O)[C@@H]1CCCN1C(=O)[C@H](Cc1ccccc1)NC(=O)[C@@H]1CCCN1C(=O)[C@H](CCC(N)=O)NC(=O)[C@@H]1CCC(=O)N1)C(=O)N1CCC[C@H]1C(=O)N[C@H](C(=O)N[C@@H](CCC(N)=O)C(=O)N1CCC[C@H]1C(=O)N[C@@H](CCC(=O)O)C(=O)N[C@@H](CCC(N)=O)C(=O)N[C@@H](CO)C(N)=O)C(C)C) [Peptide 4]”, the “IP-10 WB MAGPIX % max Mean” value was 38 % max. Also, the “Percent of maximal response” value (Subject 1, Max. 2331 pg/mL) is listed as 18 % of max. The “Percent of maximal response” value (Subject 2, Max. 3646 pg/mL) is recorded as 19 % of max. Also, the “Percent of maximal response” value (Subject 3, Max. 9492 pg/mL) is on record as ≥ 100 % of max. Besides, the “Percent of maximal response” value (Subject 4, Max. 9463 pg/mL) is ≥ 100 % of max. Further, the “Percent of maximal response” value (Subject 5, Max. 9336 pg/mL) is reported as 51 % of max. In addition, the “Percent of maximal response” value (Subject 6, Max. 5863 pg/mL) was 2 % of max. Besides, the “Percent of maximal response” value (Subject 7, Max. 2330 pg/mL) is recorded as 3 % of max. Besides, the “Percent of maximal response” value (Subject 8, Max. 4019 pg/mL) is listed as 7 % of max. In addition, for the setting “Subject 9, Max. 8349 pg/mL”, the “Percent of maximal response” value is 48 % of max. The “Percent of maximal response” value (Subject 10, Max. 8922 pg/mL) is 30 % of max.

The values are drawn from patent US20170045513A1, “METHODS OF DIAGNOSING CELIAC DISEASE USING IP-10” (ImmusanT, Inc., priority 2014, published 2017).
